Data: ChEMBL document CHEMBL1201862, “PubChem BioAssay data set” (2004)
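Protocol summary: plate cells (96-well), add compound at 5 concentrations, incubate 48 h, interpolate endpoints linearly. The concentration for 50% growth inhibition is given as GI50.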 Calls of active or inactive are those of the source. No stated cut-off is given here; in the data, active = GI50 up to about 1.1 µM and inactive = higher.

Experiments:
Test in all cases: growth of human tumour cells (NCI), 48 h
SK-MEL-28 = tested on: SK-MEL-28
UO-31 = tested on: UO-31
OVCAR-8 = tested on: OVCAR-8
EKVX = tested on: EKVX
SK-MEL-5 = tested on: SK-MEL-5
MCF7 = tested on: MCF7
OVCAR-3 = tested on: OVCAR-3
SNB-19 = tested on: SNB-19
K562 = tested on: K562
SK-OV-3 = tested on: SK-OV-3
CCRF-CEM = tested on: CCRF-CEM
U-251 = tested on: U-251
SW-620 = tested on: SW-620
TK-10 = tested on: TK-10
HOP-62 = tested on: HOP-62
NCI-H460 = tested on: NCI-H460
CAKI-1 = tested on: CAKI-1
SNB-75 = tested on: SNB-75
SF-295 = tested on: SF-295
SK-MEL-2 = tested on: SK-MEL-2

Measured: GI50

CC(=O)c1c(-c2ccco2)c(C#N)c(=S)n(C2OC(CO)C(O)C(O)C2O)c1-c1ccccc1 (centres undefined)
inactive: SK-MEL-28 38.9 µM | UO-31 51.2 µM | OVCAR-8 81.8 µM | EKVX 43.1 µM | SK-MEL-5 35.7 µM | MCF7 90.2 µM | OVCAR-3 > 100 µM | SNB-19 22.4 µM | K562 58.9 µM | SK-OV-3 > 100 µM | CCRF-CEM 43.3 µM | U-251 28.4 µM | SW-620 76 µM | TK-10 > 100 µM | HOP-62 47.6 µM | NCI-H460 > 100 µM | CAKI-1 > 100 µM | SNB-75 69.7 µM | SF-295 52.7 µM

CC(=O)OC1COC(N2c3ccccc3[C@@H]3CCc4c([nH]c5ccccc45)[C@@H]32)C(OC(C)=O)C1OC(C)=O.CC(=O)OC1COC(N2c3ccccc3[C@H]3CCc4c([nH]c5ccccc45)[C@H]32)C(OC(C)=O)C1OC(C)=O (some centres undefined)
inactive: SK-MEL-28 > 100 µM | UO-31 9.79 µM | EKVX 19 µM | SK-MEL-5 29.3 µM | OVCAR-3 26.1 µM | SNB-19 > 100 µM | SK-OV-3 44.9 µM | CCRF-CEM 26.5 µM | U-251 80.7 µM | SK-MEL-2 44.1 µM | SW-620 > 100 µM | TK-10 > 100 µM | HOP-62 > 100 µM | NCI-H460 40.6 µM | CAKI-1 27.7 µM | SNB-75 11.4 µM | SF-295 21.6 µM

CCC1C(C#N)=C(O)NC(O)=C1C#N
inactive: SK-MEL-28 > 100 µM | UO-31 > 100 µM | OVCAR-8 > 100 µM | EKVX > 100 µM | SK-MEL-5 > 100 µM | OVCAR-3 > 100 µM | SNB-19 > 100 µM | SK-OV-3 > 100 µM | U-251 > 100 µM | SK-MEL-2 > 100 µM | SW-620 > 100 µM | TK-10 > 100 µM | HOP-62 > 100 µM | NCI-H460 > 100 µM | CAKI-1 > 100 µM | SNB-75 > 100 µM | SF-295 > 100 µM

O=C1c2cccc(O)c2C(=O)c2c(O)cc(CO)cc21 [ALOE-EMODIN]
inactive: SK-MEL-28 > 100 µM | SK-MEL-5 15.8 µM | SNB-19 49.1 µM | SK-OV-3 > 100 µM | CCRF-CEM 31.3 µM | U-251 > 100 µM | SK-MEL-2 91.8 µM | SW-620 30.5 µM | TK-10 > 100 µM | HOP-62 > 100 µM | NCI-H460 29.4 µM | CAKI-1 49.1 µM | SNB-75 72.8 µM | SF-295 96.2 µM

C=C1C(=O)OC2C[C@@]3(C)CCCC(=C)C3CC12 (some centres undefined)
inactive: SK-MEL-28 11.7 µM | UO-31 4.98 µM | OVCAR-8 11.7 µM | EKVX 17.1 µM | SK-MEL-5 7.64 µM | OVCAR-3 10.4 µM | SNB-19 11.2 µM | SK-OV-3 19.5 µM | CCRF-CEM > 100 µM | U-251 10.1 µM | SK-MEL-2 3.91 µM | SW-620 3.92 µM | TK-10 11.4 µM | HOP-62 20.5 µM | NCI-H460 4.68 µM | CAKI-1 6.62 µM | SNB-75 7.23 µM | SF-295 11.4 µM

COc1ccc(-c2cc(O)c3c(C)ccnc3n2)cc1
inactive: SK-MEL-28 15.3 µM | UO-31 27.8 µM | OVCAR-8 25.9 µM | EKVX 30.7 µM | MCF7 2.03 µM | SNB-19 36.8 µM | K562 3.85 µM | SK-OV-3 23 µM | CCRF-CEM 17.8 µM | SK-MEL-2 7.6 µM | SW-620 4.81 µM | TK-10 41.1 µM | HOP-62 20.7 µM | CAKI-1 33.8 µM

O=C(N/C(=C\c1ccccc1[N+](=O)[O-])c1nc2ccccc2[nH]1)c1ccccc1
inactive: SK-MEL-28 > 100 µM | UO-31 45.8 µM | OVCAR-8 71.3 µM | SK-MEL-5 72.8 µM | OVCAR-3 68.1 µM | SNB-19 > 100 µM | K562 43.9 µM | SK-OV-3 > 100 µM | CCRF-CEM 57.9 µM | U-251 > 100 µM | SK-MEL-2 > 100 µM | SW-620 58.5 µM | TK-10 > 100 µM | CAKI-1 > 100 µM | SF-295 55.8 µM

CCOC(=O)CCN1C(=O)c2c(NC(=O)C(=O)O)cccc2S1(=O)=O
inactive: SK-MEL-28 > 100 µM | UO-31 > 100 µM | OVCAR-8 > 100 µM | EKVX > 100 µM | SK-MEL-5 > 10 µM | MCF7 > 100 µM | SNB-19 > 100 µM | K562 > 100 µM | SK-OV-3 > 100 µM | CCRF-CEM > 100 µM | U-251 > 100 µM | SK-MEL-2 > 100 µM | SW-620 > 100 µM | TK-10 > 100 µM | HOP-62 > 100 µM | NCI-H460 > 100 µM | CAKI-1 > 100 µM | SF-295 > 100 µM

CCOC(=O)NC(Nc1ncccn1)(C(F)(F)F)C(F)(F)F
inactive: SK-MEL-28 > 100 µM | UO-31 > 100 µM | EKVX > 100 µM | MCF7 > 100 µM | OVCAR-3 > 100 µM | SNB-19 > 100 µM | K562 > 100 µM | SK-OV-3 > 100 µM | CCRF-CEM > 100 µM | U-251 > 100 µM | SK-MEL-2 > 100 µM | TK-10 > 100 µM | HOP-62 > 100 µM | NCI-H460 > 100 µM | SNB-75 > 100 µM

CCOc1ncn(-c2ccc(NC(=S)Nc3ncccn3)cc2)n1
inactive: SK-MEL-28 26.1 µM | UO-31 18.6 µM | OVCAR-8 24.8 µM | EKVX 64 µM | SK-MEL-5 18.2 µM | MCF7 32.7 µM | OVCAR-3 37.7 µM | SNB-19 54 µM | K562 25.8 µM | SK-OV-3 > 100 µM | CCRF-CEM 20 µM | U-251 > 100 µM | SW-620 54.6 µM | TK-10 41.3 µM | HOP-62 > 100 µM | NCI-H460 41.4 µM | SNB-75 12.1 µM | SF-295 97.5 µM

O=C1CCC(=O)C1=NNc1ccccc1
inactive: SK-MEL-28 > 100 µM | UO-31 > 100 µM | OVCAR-8 > 100 µM | EKVX > 100 µM | SK-MEL-5 80.4 µM | OVCAR-3 > 100 µM | SNB-19 > 100 µM | K562 > 100 µM | SK-OV-3 > 100 µM | CCRF-CEM > 100 µM | U-251 > 100 µM | SK-MEL-2 > 100 µM | SW-620 > 100 µM | TK-10 > 100 µM | HOP-62 > 100 µM | NCI-H460 > 100 µM | CAKI-1 > 100 µM | SNB-75 > 100 µM | SF-295 > 100 µM
